We go through 14 compounds from ChEMBL document CHEMBL3085639, “Novel camphane-based anti-tuberculosis agents with nanomolar activity” (2013).

In brackets after ≈: the same amount, converted by molar mass. Counter-ions that a name gives are not always drawn.

Experiment [1] concerns Mycobacterium tuberculosis. As to the kind of experiment: Antimycobacterial activity against Mycobacterium tuberculosis H37Rv assessed as growth inhibition after 45 days by Canetti proportional method. In kind it is functional. The conditions noted are these: for MIC: Mycobacterium tuberculosis, H37Rv.
Experiment [2] deals with Mycobacterium tuberculosis. The experiment can be described thus: Antimycobacterial activity against Mycobacterium tuberculosis. In kind it is functional.

In general, MIC refers to the least concentration at which growth counts as inhibited. In the case of `CC[C@@H](CO)NCCN[C@@H](CC)CO` [ETHAMBUTOL HYDROCHLORIDE], the MIC in experiment [1] was 7.22 µM. For the compound `CC1(C)[C@@H]2CC[C@@]1(C)[C@H](O)[C@@H]2NC(=O)c1cccnc1`, in experiment [1], the “-logMIC” value was 6.444 and the MIC came to 0.36 µM (≈ 0.0988 µg/mL). The matching figures for `CC(=O)Oc1ccccc1C(=O)N[C@@H]1[C@H]2CC[C@@](C)([C@@H]1O)C2(C)C`: 6.523 and 0.3 µM (≈ 0.0994 µg/mL).

With `CCNC(=O)N[C@@H]1[C@H]2CC[C@@](C)([C@@H]1O)C2(C)C`, in experiment [1], the “-logMIC” value is recorded as 6.387 and the MIC is 0.41 µM (≈ 0.0985 µg/mL). Consider `CC[C@@H](CO)NCCN[C@@H](CC)CO` [ETHAMBUTOL], for which the lowest concentration to inhibit growth in experiment [2] (MIC) was 10 µM (≈ 2.04 µg/mL). Regarding `CC1(C)[C@@H]2CC[C@@]1(C)[C@H](O)[C@@H]2NC(=O)/C=C/c1ccccc1`, in experiment [1], the “-logMIC” value is recorded as 6.481 and the MIC came out at 0.33 µM (≈ 0.0988 µg/mL). The matching figures for `CSCC[C@H](O)C(=O)N[C@@H]1[C@H]2CC[C@@](C)([C@@H]1O)C2(C)C`: 6.18 and 0.66 µM (≈ 0.199 µg/mL). Turning to `CC[C@H](C)[C@H](O)C(=O)N[C@@H]1[C@H]2CC[C@@](C)([C@@H]1O)C2(C)C`, in experiment [1], the “-logMIC” value came to 5.151 and the MIC turned out to be 7.06 µM (≈ 2 µg/mL). The matching figures for `CC1(C)[C@@H]2CC[C@@]1(C)[C@H](O)[C@@H]2NC(=O)[C@@H](O)c1ccccc1`: 4.783 and 16.5 µM (≈ 5.01 µg/mL). On the same counts, the results for `CC(C)[C@H](O)C(=O)N[C@@H]1[C@H]2CC[C@@](C)([C@@H]1O)C2(C)C` are 6.131 and 0.74 µM (≈ 0.199 µg/mL). Turning to `CC1(C)[C@@H]2CC[C@@]1(C)[C@H](O)[C@@H]2NC(=O)c1ccco1`, in experiment [1], the “-logMIC” value is given as 6.42 and the MIC was determined as 0.38 µM (≈ 0.1 µg/mL). As to `CC1(C)[C@@H]2CC[C@@]1(C)[C@H](O)[C@@H]2NC(=O)CCc1ccccc1`, in experiment [1], the “-logMIC” value was 6.481 and the minimum inhibitory concentration (MIC) was found to be 0.33 µM (≈ 0.0995 µg/mL). The matching figures for `CC1(C)[C@@H]2CC[C@@]1(C)[C@H](O)[C@@H]2NP(=O)(c1ccccc1)c1ccccc1`: 4.868 and 13.6 µM (≈ 5.01 µg/mL).

With `CC1(C)[C@@H]2CC[C@@]1(C)[C@H](O)[C@@H]2NC(=O)[C@@H](O)Cc1ccccc1`, in experiment [1], the “-logMIC” value stood at 5.201 and the MIC came out at 6.3 µM (≈ 2 µg/mL).
